Read-outs that look alike come from different tables or passages of the source.
Legend:
[1] = tested on: Pseudomonas putida KT2440; experiment: Pseudomonas putida KT2440 cell growth test (OD600) with different carbon sources; assay type: cell-based; settings: for cell growth (cell concentration): synthetic solutions matching concentrations in the depolymerized polymers, versus 10 mM glucose control
Procedure: [38, 39, 44, 45]. […] This is likely due to the relatively high [Ch][Lys] concentration, where the [Ch][Lys] concentration is 4 wt %.
Due to the fact that the depolymerized PET/PLA comprises multiple carbon sources (e.g., TPA, LA, and [Ch][Lys]), it is essential to identify the major contributors for the cell growth. Two additional tests were performed. […] The depolymerized products were then diluted 20-fold to prepare the media for cell growth test. A media prepared with only [Ch][Lys] was used as the IL control.
To validate this hypothesis, a second cell growth test was conducted using synthetic TPA and LA as the media. TPA, LA, and TPA/LA mixture were prepared to match the concentrations in the depolymerized polymers. […] It can be concluded that Pseudomonas putida KT2440 is capable of catabolizing LA from depolymerized PLA and [Ch][Lys] as carbon sources, but lacks a natural metabolic pathway to consume TPA. So far, no natural terephthalate degradation pathway has been reported in Pseudomonas putida KT2440. This is consistent with our findings that TPA cannot support cell growth of Pseudomonas putida KT2440. A recent study has shown the success in engineering Pseudomonas putida KT2440 to catabolize TPA for different fermentation products. This opens the door to efficiently utilizing both TPA and LA from the depolymerized PET/PLA.
Pseudomonas putida KT2440 was inoculated as the seed culture at 30° C. overnight. The cell culture was spun down and washed with 3-(N-morpholino)propane sulfonic acid (MOPS) buffer for 5 times to remove the carbon sources. 1% cell resuspension was inoculated into 500 μL growth media in 48 well plates. The growth media included MOPS rich buffer (Teknova, #M2105) and 25 μg/mL Chloramphenicol, added with different carbon sources to support the cell growth (Table 4). Cell growths were monitored continuously at OD600 nm for 72-120 h in the plate reader (Biotek-Synergy, Y-H1) at 30° C., 570 rpm.

[2] = cited from earlier work
[3] = pH of the reaction solution before and after IL catalyzed depolymerization; assay type: physicochemical; settings: for pH before reaction: IL systems 10 wt % in water, alkaline water adjusted with NaOH; for pH after reaction, PET: after depolymerization reaction of PET; for pH after reaction, PLA: after depolymerization reaction of PLA
Procedure: Hydrolytic depolymerization of PET and PLA involves chain scission of ester linkages, where a carboxyl end group is released. […] We hypothesized that the pH influenced by IL was the major driving force of PET and PLA depolymerization. To test the hypothesis, a set of control experiments were conducted using only water and alkaline water as the solvent. […] (with pH 11.8).

[4] = Hydrolytic depolymerization of PLA using ILs in water
Procedure: (§1) Most of them are conventional imidazolium-based, including the ones that contain halometallates. With the progress in the IL research, economic and biocompatible cholinium-based ILs have attracted high interest.
(§2) […] […] The tube was immersed in a preheated oil bath at a desired temperature. Upon completion of the reaction, the tube was taken out from the oil bath and cooled to room temperature.
(§3) The reaction residue was transferred to a 50 mL falcon tube, where solid residue was recovered through centrifugation. […] The liquid fraction was sampled for product analysis. The depolymerization and product yield are defined as follows:
(§4) Depolymerization=Wsubstrate−W1Wsubstrate100%
(§5) Yield=Wproduct/MproductWsubstrate/Msubstrate×100%
(§6) Then 4 mM sulfuric acid was used as the mobile phase at a flow rate of 1.0 mL/min. The column oven temperature was maintained at 65° C.

[5] = Depolymerization of PET/PLA mixtures (1:1 mass ratio) using [Ch][Lys]; settings: 160° C.
Description: As discussed previously, the current waste management facilities will not completely eliminate the PLA contamination when sorting PET for recycling. […] Chemical recycling is an alternative to mechanical recycling in regard to dealing with PLA contaminants. […] Given its high catalytic activity, [Ch][Lys] was selected as the IL in the reaction. It should be emphasized that [Ch][Lys] is a favorable choice not only because of its high depolymerization efficiency but also because it is economic, biocompatible, less toxic, and environmentally friendly.
The initial set of experiments was carried out at 160° C. for two hours. As shown in FIG. 4A and FIG. 4B, the depolymerization efficiency varied across different IL loadings. […] Meanwhile, the TPA yield turned to be negligible (1.5%) and the LA yield was merely 40.9%. The reasons are manifold.
Although [Ch][Lys] is considered as cost-competitive compared to other conventional ILs, IL usage is often the major cost contributor in the process economics. In order to explore the way to reduce IL loading, a set of experiments was conducted by increasing the reaction time from 2 h to 6 h. Overall, reaction time extension improved both depolymerization and product yields at low IL loadings (FIG. 4A, FIG. 4B and FIG. 4C). […].
The depolymerization reaction of polyesters were conducted in a 15 mL pressure tube (Ace Glass Inc., Vineland, NJ) at […] for one hour. […] The tube was immersed in a preheated oil bath at a desired temperature. Upon completion of the reaction, the tube was taken out from the oil bath and cooled to room temperature.
as §3, §4, §5
Terephthalic acid (TPA) and lactic acid (LA) were measured on a Thermo Scientific Ultimate 3000 HPLC (Waltham, MA, USA) equipped with a Bio-Rad Aminex HPX-87H column (300×7.8 mm, Hercules, CA, USA) and a Refractive Index (RI) detector. Then 4 mM sulfuric acid was used as the mobile phase at a flow rate of 1.0 mL/min. The column oven temperature was maintained at 65° C.

[6] = Hydrolytic depolymerization of PET using ILs in water
Procedure: as §1, §2
The reaction residue was transferred to a 50 mL falcon tube, where solid residue was recovered through centrifugation. The solid fraction was washed with 5 mL deionized water three times before being dried in a lyophilizer (Labconco, Kansas City, MO). The liquid fraction was sampled for product analysis. The depolymerization and product yield are defined as follows:
as §4, §5, §6

[7] = 130° C., 2 hours, 10% IL in water
[8] = 160° C., 20% [Ch][Lys] loading, 6 hours
[9] = 90 wt % IL loading (no water), 2 h
[10] = 180° C., 2 hours, 10% IL in water

## CC(O)C(=O)O (stereo not drawn) [LA, lactic acid]
[1]
  cell growth (cell concentration): higher than glucose control

## O=C(O)c1ccc(C(=O)O)cc1 [TPA, terephthalic acid]
[2]; acidic pH
  solubility in water: insoluble
[2]; alkaline conditions
  solubility in water: water soluble
[1]
  cell growth (cell concentration): No cell growth was observed

## O [Water]
[3]
  pH before reaction: 7.6
  pH after reaction, PET: 3.4
  pH after reaction, PLA: 3.4

## C[N+](C)(C)CCO.C[N+](C)(C)CCO.C[N+](C)(C)CCO.O=P([O-])([O-])[O-] [[Ch]3[Phos], cholinium phosphate]
[3]
  pH before reaction: 12.7
  pH after reaction, PET: 7.7
  pH after reaction, PLA: 8.1

## C[N+](C)(C)CCO.NCCCC[C@H](N)C(=O)[O-] [[Ch][Lys], cholinium lysinate]
[4]; [7]
  LA yield (product yield from PLA): 39.3%
  depolymerization efficiency of PLA: 40.2%
[4]; [8]
  depolymerization of PLA: Up to 100%
[3]
  pH before reaction: 11.8
  pH after reaction, PET: 11.0
  pH after reaction, PLA: 11.1
[5]; 10 wt % IL loading, 2 h
  depolymerization efficiency of PET/PLA mixture: 50.8%
[5]; 45 wt % IL loading, 2 h
  LA yield from PET/PLA mixture: 93.8%
  TPA yield from PET/PLA mixture: 79.6%
[5]; 60 wt % IL loading, 2 h
  LA yield from PET/PLA mixture: 53.1%
  TPA yield from PET/PLA mixture: 77.2%
  depolymerization efficiency of PET/PLA mixture: 99.5%
[5]; [9]
  LA yield from PET/PLA mixture: 40.9%
  TPA yield from PET/PLA mixture: 1.5%
  depolymerization efficiency of PET/PLA mixture: 91.5%
[5]; 90 wt % IL loading, 6 h
  LA yield from PET/PLA mixture, change versus 2 h: decreased by half
  TPA yield from PET/PLA mixture: 1.6%
  depolymerization of PET/PLA mixture: 97.1%
[1]; media prepared with only [Ch][Lys] (IL control)
  cell growth: contributor to the cell growth
[6]; [8]
  depolymerization of PET: Up to 100%
[6]; [10]
  TPA yield (product yield from PET): 44.5%
  depolymerization efficiency of PET: 52.7%

## C[N+](C)(C)CCO.O=C([O-])[C@H](O)[C@@H](O)[C@H](O)[C@H](O)CO [[Cholinium][Gluconate], cholinium gluconate]
[6]; another experiment, PET depolymerization
  TPA yield higher over [Ch][Lys]: 100%

## CCn1cc[n+](C)c1.[Cl-] [[Emim]Cl, 1-ethyl-3-methylimidazolium chloride]
[3]
  pH before reaction: 6.4
  pH after reaction, PET: 4.5
  pH after reaction, PLA: 3.2

## CC(=O)[O-].CCn1cc[n+](C)c1 [[Emim][Ac], 1-ethyl-3-methylimidazolium acetate]
[3]
  pH before reaction: 7.1
  pH after reaction, PET: 6.8
  pH after reaction, PLA: 7.2
